Converted amounts (≈) assume the structure as drawn.
What was measured:
Meerschweinchenvorhof = test: Positive inotropic activity, contraction force of isolated electrically stimulated guinea pig atrium; parameters: species or system Meerschweinchen; settings: isolated left and right atria, Ringer-Lösung, 32 C, contraction force recorded 7 bis 10 Minuten
Source text: Dafür wurde folgende Methode angewandt.
400 g schwere Meerschweinchen beider Geschlechter werden getötet, das Herz entnommen und bei Raumtemperatur in Ringer-Lösung eingebracht. Sowohl der linke als auch der rechte Vorhof werden dann isoliert, an einem Organhalter befestigt und in eine Ringer-Lösung enthaltendes, bei einer Temperatur von 32 C gehaltenes Bad eingebracht. In das Organbad läßt man ein Gemisch von 95 % O2 und 5 % C02 einperlen. Dann stimuliert man den Vorhof elektrisch. Die zu prüfende erfindungsgemäße Verbindung wird in Wasser zu einer Lösung bekannter Konzentration gelöst und dem Bad zugesetzt. Die Kontraktionskraft des Vorhofs wird 7 bis 10 Minuten lang über einen isometrischen Dehnungsmeßstreifen auf einem 4-Kanal-Schreiber von Nihon Kohden registriert. Die Aktivität wird gemäß den erhaltenen Daten als ECso ausgedrückt.
Die bei diesem Modell für repräsentative erfindungsgemäße Verbindungen erhaltenen Ergebnisse sind in der nachfolgenden Tabelle aufgeführt.

Katze = test: Blood pressure lowering in the anaesthetised cat, femoral artery pressure; format: in vivo; settings: for Abfall d. BD: Chloralose-Narkose; for Dauer: duration of the blood pressure lowering effect
Source text: 3 bis 4 kg schwere Katzen beider Geschlechter werden mit Äther anästhesiert und unter Chloralose-Narkose (70 mgkg i.v.) gehalten. Sowohl die Oberschenkel-Arterie als auch die -Vene werden zur Aufzeichnung des Blutdrucks bzw. zur Verabreichung der Arzneimittel mit Kanülen versehen. Der Blutdruck in der Oberschenkelarterie wird über einen Druckaufnehmer Statham P 23 Db auf einem Nihon-Kohden-Schreiber für physiologische Zwecke ausgezeichnet. Die zu prüfende Verbindung wird in destilliertem Wasser gelöst und intravenös verabreicht. Der Blutdruckabfall und die Dauer der blutdrucksenkenden Wirkung werden notiert.
(§1) Die bei diesem Modell für repräsentative erfindungsgemäße Verbindungen erhaltenen Ergebnisse sind in der nachfolgenden Tabelle aufgeführt: […]

wachen Kaninchen = test: Intraocular pressure (IOD) measurement in the conscious rabbit, Schioetz tonometer; format: in vivo; settings: Dosis Prozent 2 (2 %ige Lösung, 100 µl instilled into one eye); for IOD-senkende Wirkung % Abnahme des IOD: decrease calculated from the baseline value; for IOD-senkende Wirkung Dauer: duration of the IOD-lowering effect
Source text: Für diesen Versuch werden 2 bis 3 kg schwere Kaninchen beider Geschlechter verwendet. Der intraokulare Druck (IOD) wird mit einem Schioetz-Tonometer nach Hornhaut-Anästhesie mit 2 %iger Novocainlösung gemessen. Zur Herstellung einer 2 %igen Lösung wird eine erfindungsgemäße Verbindung unter Verwendung der stöchiometrischen Menge 0,1 n-HCI, bzw. deren Salz direkt in Wasser gelöst. Nach Ermittlung des Ausgangswertes werden 100 u.l der Lösung der Testverbindung in eines der Augen, das Vehikel in das andere Auge instilliert. Der IOD wird in bestimmten Zeitabständen, d.h. 0,5; 1, 2, 3, 4 und 5 Stunden gemessen. Die prozentuale Abnahme des IOD wird anhand des Ausgangswertes berechnet.
as §1

C=C[C@@]1(C)CC(=O)[C@]2(O)[C@@]3(C)[C@@H](O)CCC(C)(C)[C@@H]3[C@H](OC(=O)CN3CCCCC3)[C@H](OC(=O)N(CC)CC)[C@@]2(C)O1 [R6=COCH2N[drawing], R7=CON(C2H5)2]
EC50 (Meerschweinchenvorhof): 0.44 µg/mL (≈ 0.742 µM)

C=C[C@@]1(C)CC(=O)[C@]2(O)[C@@]3(C)[C@@H](O)CCC(C)(C)[C@@H]3[C@H](OC(=O)CN3CCCCC3)[C@H](OC(=O)OCC)[C@@]2(C)O1 [R6=COCH2N[drawing], R7=COOC2H5]
EC50 (Meerschweinchenvorhof): 1.6 µg/mL (≈ 2.83 µM)

C=C[C@@]1(C)CC(=O)[C@]2(O)[C@@]3(C)[C@@H](O)CCC(C)(C)[C@@H]3[C@H](OC(=O)CN3CCCCC3)[C@H](OC(=O)OCC)[C@@]2(C)O1 [R6=[drawing], R7=COOC2H5 (the 5th table, row 4)]
Abfall d. BD (Katze; Dosis 3 mg/kg intravenös): 60 | Dauer (Katze; Dosis 3 mg/kg intravenös): 60 min

C=C[C@@]1(C)CC(=O)[C@]2(O)[C@@]3(C)[C@@H](O)CCC(C)(C)[C@@H]3[C@H](OC(=O)CCN3CCCCC3)[C@H](OC(=O)OCC)[C@@]2(C)O1 [R6=[drawing], R7=COOC2H5 (the 4th table, row 2)]
IOD-senkende Wirkung % Abnahme des IOD (wachen Kaninchen): 20% | IOD-senkende Wirkung Dauer (wachen Kaninchen): 300 min

C=C[C@@]1(C)CC(=O)[C@]2(O)[C@@]3(C)[C@@H](O)CCC(C)(C)[C@@H]3[C@H](OC(=O)CCN3CCCCC3)[C@H](OC(=O)OCC)[C@@]2(C)O1 [R6=[drawing], R7=COOC2H5 (the 5th table, row 2)]
Abfall d. BD (Katze; Dosis 1 mg/kg intravenös): 40 | Dauer (Katze; Dosis 1 mg/kg intravenös): >20 min

C=C[C@@]1(C)CC(=O)[C@]2(O)[C@@]3(C)[C@@H](O)CCC(C)(C)[C@@H]3[C@H](OC(=O)CCN3CCCCC3)[C@H](OC(=O)N(CC)CC)[C@@]2(C)O1 [R6=[drawing], R7=CON(C2H5)2 (the 5th table, row 3)]
Abfall d. BD (Katze; Dosis 1 mg/kg intravenös): 20 | Dauer (Katze; Dosis 1 mg/kg intravenös): 60 min

C=C[C@@]1(C)CC(=O)[C@]2(O)[C@@]3(C)[C@@H](O)CCC(C)(C)[C@@H]3[C@H](OC(=O)CN3CCCCC3)[C@H](OC(=O)N(CC)CC)[C@@]2(C)O1 [R6=[drawing], R7=CON(C2H5)2 (the 5th table, row 5)]
Abfall d. BD (Katze; Dosis 1 mg/kg intravenös): 50 | Dauer (Katze; Dosis 1 mg/kg intravenös): 20 min

C=C[C@@]1(C)CC(=O)[C@]2(O)[C@@]3(C)[C@@H](O)CCC(C)(C)[C@@H]3[C@H](OC(=O)CCN3CCCCC3)[C@H](OC(=O)N(CC)CC)[C@@]2(C)O1 [R6=CO(CH2)2N[drawing], R7=CON(C2H5)2]
EC50 (Meerschweinchenvorhof): 0.79 µg/mL (≈ 1.3 µM)

C=C[C@@]1(C)CC(=O)[C@]2(O)[C@@]3(C)[C@@H](O)CCC(C)(C)[C@@H]3[C@H](OC(=O)CCN3CCCCC3)[C@H](OC(=O)N(CC)CC)[C@@]2(C)O1 [R6=[drawing], R7=CON(C2H5)2 (the 4th table, row 3)]
IOD-senkende Wirkung % Abnahme des IOD (wachen Kaninchen): 25% | IOD-senkende Wirkung Dauer (wachen Kaninchen): 360 min

C=C[C@@]1(C)CC(=O)[C@]2(O)[C@@]3(C)[C@@H](O)CCC(C)(C)[C@@H]3[C@H](OC(=O)CN3CCCCC3)[C@H](OC(=O)OCC)[C@@]2(C)O1 [R6=[drawing], R7=COOC2H5 (the 4th table, row 4)]
IOD-senkende Wirkung % Abnahme des IOD (wachen Kaninchen): 0%

C=C[C@@]1(C)CC(=O)[C@]2(O)[C@@]3(C)[C@@H](O)CCC(C)(C)[C@@H]3[C@H](OC(=O)CN3CCCCC3)[C@H](OC(=O)N(CC)CC)[C@@]2(C)O1 [R6=[drawing], R7=CON(C2H5)2 (the 4th table, row 5)]
IOD-senkende Wirkung % Abnahme des IOD (wachen Kaninchen): 20% | IOD-senkende Wirkung Dauer (wachen Kaninchen): 420 min

Reference: patent EP0315097A2, “Acyl labdane derivatives, process for their preparation and their use as medicines” (HOECHST AKTIENGESELLSCHAFT, priority 1987, dated 1989)
